Test results published in PMC3502511, “Inhibition of the Prokaryotic Pentameric Ligand-Gated Ion Channel ELIC by Divalent Cations” (PLoS Biology, 2012).
“And” between values parts separate entries of the source, which are not always exact repeats. Equal entries are not always repeated. Where two headings read alike, the source gives them in different places.

Key:
[1] = biological target: T1, ELIC R91A (Dickeya chrysanthemi, UniProt P0C7B7, INS163G/R91A); assay: Two-electrode voltage clamp, ELIC R91A in oocytes; format: cell-based, Erwinia chrysanthemi; settings: for Slope: Schild plot slope; for pA: agonist cysteamine
T1 construct: expressed in transfected cells; host or cells: X. laevis oocytes
Description: (§1) Constructs containing the gene of either the WT or mutant channels preceded by the signal sequence of the chicken α7nAchR were cloned into the pTLN vector for expression in X. laevis oocytes. After linearization of the plasmid DNA by MluI, capped complementary RNA was transcribed with the mMessage mMachine kit (Ambion) and purified with the RNeasy kit (Qiagen). For expression, 1–50 ng of RNA was injected into defolliculated oocytes. Two-electrode voltage clamp measurements were performed 1 d after injection at 20°C (OC-725B, Warner Instrument Corp.). Currents were recorded in bath solutions containing 10 mM HEPES (pH 7), 130 mM NaCl, and the indicated concentrations of cysteamine and divalent cations. In case of solutions containing Zn^2+, cysteamine was replaced by propylamine. The membrane potential in all dose–response measurements was set to −40 mV. As ELIC is permeable to divalent cations, we tested if endogenous calcium-activated chloride channels affected our measurements. To chelate intracellular calcium ions, the oocytes were incubated for 15 to 30 min in bath solutions lacking divalent ions but containing 10 µM BAPTA-AM.

[2] = biological target: T2, ELIC D113A/D158A (Dickeya chrysanthemi, UniProt P0C7B7, D113A/D158A/INS163G); assay: cell-based; format: cell-based, Erwinia chrysanthemi; settings: D113A/D158A; for Slope: Schild plot slope; for pA / effects on the agonist dose-response curves in the double mutant: agonist cysteamine
T2 construct: expressed in transfected cells; host or cells: X. laevis oocytes
Description: as §1

[3] = biological target: T3, ELIC WT (Dickeya chrysanthemi, UniProt P0C7B7, INS163G); assay: cell-based; format: cell-based, Erwinia chrysanthemi; settings: for Slope: Schild plot slope; for Ki: Schild analysis, read-out: Ki app
T3 construct: expressed in transfected cells; host or cells: X. laevis oocytes (cRNA injection, pTLN vector)
Description: as §1

[4] = biological target: T4, ELIC E150A (Dickeya chrysanthemi, UniProt P0C7B7, E150A/INS163G); assay: Two-electrode voltage clamp, ELIC E150A in oocytes; format: cell-based, Erwinia chrysanthemi
T4 construct: expressed in transfected cells; host or cells: X. laevis oocytes
Description: as §1

[5] = biological target: T5, ELIC D113N (Dickeya chrysanthemi, UniProt P0C7B7, D113N/INS163G); assay: Two-electrode voltage clamp, ELIC D113N in oocytes; format: cell-based, Erwinia chrysanthemi
T5 construct: expressed in transfected cells; host or cells: X. laevis oocytes
Description: as §1

[6] = biological target: T6, ELIC D113A (Dickeya chrysanthemi, UniProt P0C7B7, D113A/INS163G); assay: Two-electrode voltage clamp, ELIC D113A in oocytes; format: cell-based, Erwinia chrysanthemi
T6 construct: expressed in transfected cells; host or cells: X. laevis oocytes
Description: as §1

[7] = biological target: T7, ELIC E150Q (Dickeya chrysanthemi, UniProt P0C7B7, E150Q/INS163G); assay: Two-electrode voltage clamp, ELIC E150Q in oocytes; format: cell-based, Erwinia chrysanthemi
T7 construct: expressed in transfected cells; host or cells: X. laevis oocytes
Description: as §1

[8] = biological target: T8, ELIC S84A (Dickeya chrysanthemi, UniProt P0C7B7, INS163G/S84A); assay: Two-electrode voltage clamp, ELIC S84A in oocytes; format: cell-based, Erwinia chrysanthemi; settings: S84A
T8 construct: expressed in transfected cells; host or cells: X. laevis oocytes
Description: as §1

[9] = biological target: T9, ELIC (Dickeya chrysanthemi, UniProt P0C7B7, INS163G); settings: high Ca^2+ concentration; cited from earlier work
T9 construct: expressed in transfected cells; host or cells: HEK 293 cells (ATCC CRL-1573), pcDNA3

[10] = biological target: T10, ELIC D86A (Dickeya chrysanthemi, UniProt P0C7B7, D86A/INS163G); assay: Two-electrode voltage clamp, ELIC D86A in oocytes; format: cell-based, Erwinia chrysanthemi
T10 construct: expressed in transfected cells; host or cells: X. laevis oocytes
Description: as §1

[11] = biological target: T11, ELIC D158N (Dickeya chrysanthemi, UniProt P0C7B7, D158N/INS163G); assay: Two-electrode voltage clamp, ELIC D158N in oocytes; format: cell-based, Erwinia chrysanthemi
T11 construct: expressed in transfected cells; host or cells: X. laevis oocytes
Description: as §1

[12] = biological target: T12, ELIC D158A (Dickeya chrysanthemi, UniProt P0C7B7, D158A/INS163G); assay: Two-electrode voltage clamp, ELIC D158A in oocytes; format: cell-based, Erwinia chrysanthemi
T12 construct: expressed in transfected cells; host or cells: X. laevis oocytes
Description: as §1

[13] = biological target: T13, ELIC N251A (Dickeya chrysanthemi, UniProt P0C7B7, N250A); assay: Two-electrode voltage clamp, ELIC N251A in oocytes; format: cell-based, Erwinia chrysanthemi
T13 construct: expressed in transfected cells; host or cells: X. laevis oocytes
Description: as §1

[14] = WT, Schild plot x-intercept (log of mM), agonist cysteamine, −40 mV
[15] = Schild analysis, read-out: Ki app

For CC(=O)OCC[N+](C)(C)C [ACh, acetylcholine], the “increase in the Schild affinity in the mutant R91A” value ([1]; R91A versus WT) was 10 fold, the Slope ([1]; R91A) was 0.7±0.1 and the pA ([1]; R91A) was −0.77±0.05. It also gave a Slope [2] of 0.8±0.1, a pA [2] of 0.32±0.06 and a pA ([3]; WT/1 mM Ca^2+ present, agonist cysteamine) of 0.35±0.01. For the same molecule, the Slope ([3]; WT/1 mM Ca^2+) was 1.1±0.01, the pA ([3]; WT/.25 mM Ca^2+ present, agonist cysteamine) was 0.06±0.06 and the Slope ([3]; WT/.25 mM Ca^2+) was 0.9±0.1. For the same molecule, the pA ([3]; WT/.5 mM Ca^2+ present, agonist cysteamine) was 0.11±0.09, the Slope ([3]; WT/.5 mM Ca^2+) was 0.9±0.01 and the Slope ([3]; WT, agonist cysteamine) was 1.0±0.1. For the same molecule, the Slope ([3]; WT, agonist cysteamine, listed as acetylcholine) was “unity” and the pA [3, 14] was 0.21±0.06.

In the case of [Ba+2] [Ba^2+, barium], the Ki [2, 15] is reported as 6500 µM, the Slope [2] is reported as 0.6±0.02 and the “effects on the agonist dose-response curves in the double mutant” value [2] is reported as “virtually abolishes”. For the same molecule, the pA [2] was 0.81±0.02, the Ki ([3]; WT, agonist cysteamine) was 850 µM and the Slope ([3]; WT, agonist cysteamine) was 1.1±0.03. The pA [3, 14] was −0.07±0.01.

In the case of [Ca+2] [Ca^2+, calcium], the Ki [4, 15] is reported as 1700 µM, the Slope ([4]; Schild plot slope) is reported as 1.0±0.2 and the pA ([4]; agonist cysteamine) is reported as 0.23±0.12. For the same molecule, the Ki ([1]; R91A, Schild analysis, read-out: Ki app) was 210 µM, the Slope ([1]; R91A) was 0.7±0.1 and the pA ([1]; R91A) was −0.69±0.03. The “effects on the agonist dose-response curves in the double mutant” value [2] was “virtually abolishes”, the “reduction of maximum agonist response” value ([3]; 5 mM Ca^2+, saturating cysteamine, −40 mV) was 55% and the pA ([3]; WT/1 mM ACh present, agonist cysteamine) was −0.65±0.01. For the same molecule, the Ki ([3]; WT/1 mM ACh) was 220 µM, the Slope ([3]; WT/1 mM ACh) was 0.9±0.02 and the pA ([3]; WT/BAPTA (BAPTA-AM-treated oocytes), agonist cysteamine) was −0.69±0.11. The Ki ([3]; WT/BAPTA) was 200 µM, the Slope ([3]; WT/BAPTA) was 1.0±0.3 and the Ki ([3]; WT, agonist cysteamine) was 260 µM. For the same molecule, the Slope ([3]; WT, agonist cysteamine) was 0.8 and 0.8±0.05, the pA [3, 14] was −0.57±0.03 and the IC50 ([3]; WT, maximum cysteamine response, read-out: IC50 of decline of maximum current response (Langmuir equation)) was 6000 µM. For the same molecule, the “decrease in the agonist maximum response” value ([3]; at 6 mM calcium, channel block subtracted) was “about 50%”, the Ki [5, 15] was 950 µM and the Slope ([5]; Schild plot slope) was 1.0±0.01. It also gave a pA ([5]; agonist cysteamine) of −0.02±0.08, a Ki [6, 15] of 4900 µM and a Slope ([6]; Schild plot slope) of 1.0±0.3. For the same molecule, the pA ([6]; agonist cysteamine) was 0.69±0.04, the Ki [7, 15] was 1200 µM and the Slope ([7]; Schild plot slope) was 0.9±0.3. It also gave a pA ([7]; agonist cysteamine) of 0.09±0.20, a Ki [8, 15] of 150 µM and a Slope ([8]; Schild plot slope) of 0.6±0.2. The pA ([8]; agonist cysteamine) was −0.83±0.14, the “maximum decrease of single channel currents” value [9] was “about 50%” and the Ki [10, 15] was 250 µM. The Slope ([10]; Schild plot slope) was 0.8±0.1, the pA ([10]; agonist cysteamine) was −0.60±0.11 and the Ki [11, 15] was 3200 µM. It also gave a Slope ([11]; Schild plot slope) of 0.5±0.2, a pA ([11]; agonist cysteamine) of 0.50±0.17 and a Ki [12, 15] of 5400 µM. For the same molecule, the Slope ([12]; Schild plot slope) was 1.2±0.1, the pA ([12]; agonist cysteamine) was 0.74±0.01 and the Ki [13, 15] was 530 µM. It also gave a Slope ([13]; Schild plot slope) of 0.9±0.2 and a pA ([13]; agonist cysteamine) of −0.27±0.19.

Work on [Mg+2] [Mg^2+] yielded a Ki ([3]; WT, agonist cysteamine) of 430 µM, a Slope ([3]; WT, agonist cysteamine) of 0.9±0.01 and a pA [3, 14] of −0.36±0.02.
